pEC50, pIC50: −log10 of the molar value.
What was measured:
[1] = target: T1, Polyunsaturated fatty acid 5-lipoxygenase (Homo sapiens, UniProt P09917); test: Inhibition of 5-LO in human PMNL assessed as reduction in 5-LO product formation pre-incubated for 15 mins before addition of arachidonic acid substrate by HPLC analysis; details: for pIC50: read-out: IC50
T1 sequence (P09917 whole entry): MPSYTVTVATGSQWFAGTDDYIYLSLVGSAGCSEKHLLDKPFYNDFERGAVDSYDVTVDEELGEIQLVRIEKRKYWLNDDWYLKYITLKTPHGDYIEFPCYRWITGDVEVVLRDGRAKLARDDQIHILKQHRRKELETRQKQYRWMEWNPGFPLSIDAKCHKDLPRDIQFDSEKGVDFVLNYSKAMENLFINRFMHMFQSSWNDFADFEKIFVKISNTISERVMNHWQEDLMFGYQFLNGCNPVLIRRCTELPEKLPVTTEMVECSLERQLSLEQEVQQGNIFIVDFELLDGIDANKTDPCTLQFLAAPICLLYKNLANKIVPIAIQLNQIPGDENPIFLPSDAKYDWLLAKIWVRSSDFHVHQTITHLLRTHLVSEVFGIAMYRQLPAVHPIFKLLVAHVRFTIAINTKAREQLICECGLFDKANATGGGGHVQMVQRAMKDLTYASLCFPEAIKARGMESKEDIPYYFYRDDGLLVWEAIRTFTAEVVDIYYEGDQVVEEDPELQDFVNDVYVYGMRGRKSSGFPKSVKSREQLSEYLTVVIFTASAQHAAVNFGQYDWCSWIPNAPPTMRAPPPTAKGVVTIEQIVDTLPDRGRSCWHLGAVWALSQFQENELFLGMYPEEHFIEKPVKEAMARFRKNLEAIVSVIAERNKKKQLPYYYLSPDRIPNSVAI

[2] = target: T2, Presenilin-1 (Homo sapiens, UniProt P49768); test: Activation of wild-type human presenilin-1 stably overexpressed in CHO cells co-expressing wild-type human amyloid precursor protein assessed as amyloid beta 38 formation after 24 hrs by ELISA; type: cell-based
[3] = target: T2, Presenilin-1; test: Inhibition of wild-type human presenilin-1 stably overexpressed in CHO cells co-expressing wild-type human amyloid precursor protein assessed as inhibition of amyloid beta 42 formation after 24 hrs by ELISA; type: cell-based
[4] = target: T3, Peroxisome proliferator-activated receptor gamma (Homo sapiens, UniProt P37231); test: Activation of human PPARgamma ligand binding domain expressed in COS7 cells by dual luciferase reporter gene assay; type: cell-based, COS-7; details: for EC50: cos-7; for pEC50: read-out: EC50
T3 sequence (P37231 whole entry): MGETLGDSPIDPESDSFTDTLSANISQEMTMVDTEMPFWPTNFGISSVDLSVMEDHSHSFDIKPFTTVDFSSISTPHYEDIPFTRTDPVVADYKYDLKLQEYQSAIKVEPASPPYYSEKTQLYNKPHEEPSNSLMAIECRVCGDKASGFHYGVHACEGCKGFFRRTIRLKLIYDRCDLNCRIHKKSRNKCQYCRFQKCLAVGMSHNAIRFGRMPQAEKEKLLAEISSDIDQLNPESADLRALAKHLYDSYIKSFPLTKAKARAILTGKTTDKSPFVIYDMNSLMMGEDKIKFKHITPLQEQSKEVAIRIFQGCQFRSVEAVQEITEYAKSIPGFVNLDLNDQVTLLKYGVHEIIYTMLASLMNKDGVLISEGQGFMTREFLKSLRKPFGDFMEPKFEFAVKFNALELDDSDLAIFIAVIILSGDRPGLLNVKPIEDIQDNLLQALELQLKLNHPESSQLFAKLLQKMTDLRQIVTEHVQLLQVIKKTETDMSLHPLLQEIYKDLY

[5] = target: T4, Peroxisome proliferator-activated receptor gamma (Homo sapiens) (UniProt P37231); test: Activation of human PPARgamma ligand binding domain expressed in COS7 cells by dual luciferase reporter gene assay relative to 1 uM pioglitazone; type: cell-based; details: COS-7
T4 sequence (whole entry): T3 sequence (P37231 whole entry)

Compound | IC50 [1] | pEC50 [2] | pIC50 [3] | EC50 [4] | pIC50 [1] | max activation [5] | pEC50 [4]
CCCC/C(=C\c1cc(OCc2ccc(-c3ccccc3)cc2)ccc1OCc1ccc(C(F)(F)F)cc1)C(=O)O | Not Active | 5.49 | 4.92 | Not Active | – | – | –
CCCC/C(=C\c1cc(OCc2ccc(-c3csc(C)n3)cc2)ccc1OCc1ccc(C(F)(F)F)cc1)C(=O)O | – | 5.66 | 4.69 | Not Active | 5.17 | – | –
CCCCC(Sc1nc(OCCc2ccccc2)cc(OCCc2ccccc2)n1)C(=O)O (configuration not stated) | – | 4.95 | 4.64 | – | – | 61% | –
CCCC/C(=C\c1cc(Oc2ccccc2)ccc1OCc1ccc(C(F)(F)F)cc1)C(=O)O | – | 4.81 | 4.83 | – | 5.68 | 76% | 6.14
CCCC/C(=C\c1cc(OCc2ccc(OCc3ccccc3)cc2)ccc1OCc1ccc(C(F)(F)F)cc1)C(=O)O | Not Active | 5.74 | 5.07 | Not Active | – | – | –
CCCC/C(=C\c1cc(OCc2ccc(CCCC)cc2)ccc1OCc1ccc(C(F)(F)F)cc1)C(=O)O | Not Active | 5.36 | 5.36 | Not Active | – | – | –
CCCCC(Sc1nc(OCCC2CCCCC2)cc(OCCC2CCCCC2)n1)C(=O)O (configuration not stated) | – | 5.34 | 5.29 | – | – | 71% | –
CCCC/C(=C\c1cc(OCc2cccnc2)ccc1OCc1ccc(C(F)(F)F)cc1)C(=O)O | – | 4.63 | 4.49 | – | 5.64 | 120% | 5.59

Reference: ChEMBL document CHEMBL3397016, “SAR-studies of γ-secretase modulators with PPARγ-agonistic and 5-lipoxygenase-inhibitory activity for Alzheimer's disease” (Bioorg Med Chem Lett, 2015)
